Data reported in patent US20140162942A1, “INHIBITION OF CYP3A DRUG METABOLISM” (priority 2010, published 2014).
Where two headings read alike, the source gives them in different places.

Tests used:
CYP2E1 = target: T1, CYP2E1 (Homo sapiens, UniProt P05181); assay: CYP2E1 inhibition, chlorzoxazone 6-hydroxylation in human liver microsomes; assay type: in vitro ADME; conditions: for Potential for Time-Dep. Inhibition: comparison with and without 30-minute pre-incubation
T1 construct: Pooled human liver microsomes (from sixteen individuals) were used as the source of enzymes; tissue XenoTech, LLC; host or cells: human liver microsomes, pool of sixteen donors
Procedure: (§1) The basis for many of the following incubation conditions is described in the following references: Madan, et al., 2002,^(1) Huang, 2004,^(3) Ogilvie, et al., 2006,^(6) Pearce, et al., 1996,^(7) Tucker, et al., 2001,^(4) and Walsky and Obach, 2004.^(5) In general, incubations were conducted at approximately 37° C. in 400-μL incubation mixtures (target pH 7.4) containing high purity water, potassium phosphate buffer (50 mM), MgCl2 (3 mM), EDTA (1 mM), an NADPH-generating system [always the mixture of the following: NADP (1 mM), glucose-6-phosphate (5 mM), glucose-6-phosphate dehydrogenase (1 Unit/mL)], and marker substrate at the final concentrations indicated. Pooled human liver microsomes (from sixteen individuals) were used as the source of enzymes (Section 1.3.1.2). The concentrations of marker substrates were based on the Km and Vmax data that were determined previously (data not shown).
(§2) Due to the possibility that boceprevir may bind to microsomal protein or lipids, an attempt was made to design these experiments such that, in as many cases as possible, the microsomal protein, incubation time, and phosphate buffer concentration were 0.1 mg/mL, 5 minutes and 50 mM, respectively, for assays performed with human liver microsomes (Table 1). […] Since it is not imperative that the concentration of marker substrates be exactly equal to Km, the marker substrate concentrations were rounded up or down, as applicable, to simplify the experimental design (data not shown). […] Thus, the final incubation concentration of phenacetin was 60 μM (Table 1).
(§3) The ability of boceprevir to inhibit the CYP enzymes listed in Section 1.2.1 was investigated with a pool of sixteen individual human liver microsomal samples at the concentrations indicated in Table 1. Aliquots of the stock and/or working solutions of boceprevir were manually added to buffer mixtures containing the components described in Section 1.3.21. Incubation mixtures were prepared in bulk to obviate the need for directly pipetting very small volumes (i.e., 1 μL or less). Incubations containing no boceprevir (0 μM) contained the vehicle used to dissolve boceprevir (i.e., 1% methanol).
The Tecan liquid handling system conducted all remaining incubation steps, with the exception of the centrifugation. Aliquots of the buffer mixtures were then automatically added to 96-well plates at the appropriate locations in duplicate. Aliquots of a substrate working solution were added to the 96-well plates, prior to initiating reactions, to give the final concentrations indicated in Table 1. Reactions were initiated with the addition of an aliquot of an NADPH-generating system. […]

[1] = Qualitative visual solubility in the test system; assay type: physicochemical; conditions: 10 μL of 10 mM methanol stock in 990 μL buffer with human liver microsomes, pH 7.4
Procedure: A stock solution of boceprevir (target concentration of 10 mM) in methanol was prepared and solubility testing was conducted to qualitatively assess boceprevir solubility in the test system. An aliquot (10 μL) of the highest stock boceprevir solution (10 mM in methanol) was added to a 990-μL mixture (target pH 7.4) containing high purity water, potassium phosphate buffer (50 mM), MgCl2 (3 mM), EDTA (1 mM), and human liver microsomes (0.0125 and 0.1 mg/mL) at the final concentrations listed (for a total volume of 1000 μt). […] The stock solution (10 mM boceprevir for IC50 determinations), along with dilutions to working solutions (ranging from 0.01 to 3.0 mM boceprevir) were prepared fresh each day experiments were performed. […] These solutions were prepared fresh on the day the Ki determination experiment was performed. Additionally, a stock concentration of 0.3 mM was used in the NADPH dependence/effects of dilution, as well as the MIC formation experiment.

CYP1A2 = target: T2, CYP1A2 (Homo sapiens, UniProt P05177); assay: CYP1A2 inhibition, phenacetin O-deethylation in human liver microsomes; assay type: in vitro ADME; conditions: for Potential for Time-Dep. Inhibition: comparison with and without 30-minute pre-incubation; for inhibition at 5 min, 100 µM: human, pH 7.4, probe phenacetin (O-deethylation), 60 μM
T2 construct: Pooled human liver microsomes (from sixteen individuals) were used as the source of enzymes; tissue XenoTech, LLC; host or cells: human liver microsomes, pool of sixteen donors
T2 sequence (P05177 1-516): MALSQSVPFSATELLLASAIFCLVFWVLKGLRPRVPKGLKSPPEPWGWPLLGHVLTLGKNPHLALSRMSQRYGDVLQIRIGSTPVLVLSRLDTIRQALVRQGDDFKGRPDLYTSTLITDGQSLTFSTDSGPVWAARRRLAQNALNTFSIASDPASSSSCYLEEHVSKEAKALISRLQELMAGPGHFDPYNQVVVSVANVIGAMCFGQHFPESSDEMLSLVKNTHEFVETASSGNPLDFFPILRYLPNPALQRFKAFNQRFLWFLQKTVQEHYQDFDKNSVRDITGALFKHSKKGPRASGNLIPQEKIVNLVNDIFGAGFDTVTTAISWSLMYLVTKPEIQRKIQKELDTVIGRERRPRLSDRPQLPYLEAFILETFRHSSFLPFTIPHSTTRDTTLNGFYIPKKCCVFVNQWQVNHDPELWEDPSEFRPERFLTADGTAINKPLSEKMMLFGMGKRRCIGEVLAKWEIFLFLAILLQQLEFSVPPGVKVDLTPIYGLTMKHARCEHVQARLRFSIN
Procedure: as §1, §2, §3
The Tecan liquid handling system conducted all remaining incubation steps, with the exception of the centrifugation. Aliquots of the buffer mixtures were then automatically added to 96-well plates at the appropriate locations in duplicate. Aliquots of a substrate working solution were added to the 96-well plates, prior to initiating reactions, to give the final concentrations indicated in Table 1. Reactions were initiated with the addition of an aliquot of an NADPH-generating system. Reactions were automatically terminated at approximately 5 minutes, by the addition of the appropriate internal standard (Table 5) and stop reagent; acetonitrile. Precipitated protein was removed by centrifugation (920 g for 10 minutes at 10° C.). Standards and quality control samples were similarly prepared with the addition of authentic metabolite standards.
To examine its ability to act as a time-dependent inhibitor, boceprevir (at the same concentrations used to evaluate direct inhibition) was pre-incubated at 37±1° C., in duplicate, with human liver microsomes and an NADPH-generating system for approximately 30 minutes. This pre-incubation allowed for the generation of intermediates that could inhibit human CYP enzymes. The pre-incubations were initiated with the addition of an aliquot of an NADPH-generating system. […] Reactions were automatically terminated, at approximately 5 minutes, by the addition of the appropriate internal standard (Table 5) and stop reagent; acetonitrile. Precipitated protein was removed by centrifugation (920 g for 10 minutes at 10° C.). Incubations containing no boceprevir (0 μM) and incubations that contained boceprevir but were not pre-incubated, served as negative controls.

[2] = direct inhibition, zero-minute pre-incubation, pooled human liver microsomes
[3] = time-dependent inhibition, 30-minute pre-incubation

T1 sequence (P05181 whole entry): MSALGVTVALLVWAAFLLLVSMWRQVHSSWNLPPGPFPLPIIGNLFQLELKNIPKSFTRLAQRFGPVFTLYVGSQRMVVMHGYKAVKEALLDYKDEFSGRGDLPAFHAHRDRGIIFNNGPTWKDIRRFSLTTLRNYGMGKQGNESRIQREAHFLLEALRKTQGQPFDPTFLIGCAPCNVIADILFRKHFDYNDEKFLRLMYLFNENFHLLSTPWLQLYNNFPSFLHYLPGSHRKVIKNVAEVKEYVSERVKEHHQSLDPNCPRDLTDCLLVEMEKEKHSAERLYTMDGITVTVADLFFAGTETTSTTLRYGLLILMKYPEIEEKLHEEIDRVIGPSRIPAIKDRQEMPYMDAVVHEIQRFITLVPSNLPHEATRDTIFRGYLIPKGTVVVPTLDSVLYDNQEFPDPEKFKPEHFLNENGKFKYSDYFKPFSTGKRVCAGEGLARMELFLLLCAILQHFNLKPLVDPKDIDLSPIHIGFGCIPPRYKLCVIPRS

CC(C)(C)NC(=O)NC(C(=O)N1CC2C([C@H]1C(=O)NC(CC1CCC1)C(=O)C(N)=O)C2(C)C)C(C)(C)C (stereo partly drawn) [Boceprevir, (1R,2S,5S)—N-[(2Ξ)-4-amino-1-cyclobutyl-3,4-dioxobutan-2-yl]-3-{(2S)-2-[(tert-butylcarbamoyl)amino]-3,3-dimethylbutanoyl}-6,6-dimethyl-3-azabicyclo[3.1.0]hexane-2-carboxamide]
Potential for Time-Dep. Inhibition (CYP2E1): little or no | Potential for Time-Dep. Inhibition (CYP2E1; listed as boceprevir): no discernable time-dependent inhibition | IC50 (CYP2E1; [2]): > 100 µM | IC50 (CYP2E1; [3]): > 100 µM | Solubility in the test system (qualitative visual comparison) [1]: soluble | Potential for Time-Dep. Inhibition (CYP1A2): little or no | Potential for Time-Dep. Inhibition (CYP1A2; listed as boceprevir): no discernable time-dependent inhibition | IC50 (CYP1A2; [2]): > 100 µM | inhibition at 5 min, 100 µM (CYP1A2; pooled human liver microsomes, direct inhibition, zero-minute pre-incubation, read-out: Max. Inhib. at 100 μM): 22% | inhibition at 5 min, 100 µM (CYP1A2; pooled human liver microsomes, time-dependent inhibition, 30-minute pre-incubation, read-out: Maximum Inhibition at 100 μM): 9.8% | IC50 (CYP1A2; [3]): > 100 µM
